Values quoted from earlier work, collected in US20100076052A1, “PERINDOPRIL FORMULATIONS” (priority 2008, published 2010).

Compound: CCCC(N[C@@H](C)C(=O)N1[C@H](C(=O)O)C[C@@H]2CCCC[C@@H]21)C(=O)OCC (stereo partly drawn) [Perindopril erbumine, (2S,3αS,7αS)-1-[(S)—N—[(S)-1-carboxybutyl]alanyl]hexahydro-2-indolinecarboxylic acid, 1-ethyl ester, compound with t-butylamine (1:1)]
- solubility in alcohol (alcohol): freely soluble
- solubility in chloroform (chloroform): freely soluble
- solubility in water (water): 60 % w/w
